Reference: ChEMBL document CHEMBL5223129, “Antioxidant, Anti-inflammatory, and Immunomodulatory Roles of Nonvitamin Antioxidants in Anti-SARS-CoV-2 Therapy” (J Med Chem, 2022)

Tested on: SARS-CoV-2
Assay: Antiviral activity against pseudovirus SARS-CoV-2 spike protein infected human HEK293T cells overexpressing ACE2 assessed as inhibition of viral infection incubated for 96 hrs by GFP fluorescence based method
Type: functional, organism-based
Details: Severe acute respiratory syndrome coronavirus 2, HEK-293T

CC1=C[C@H](O)CC(C)(C)[C@H]1/C=C/C(C)=C/C=C/C(C)=C/C=C/C=C(C)/C=C/C=C(\CO)C(=O)CC1=C(C)C[C@@H](O)CC1(C)C
IC50: 87.4 µM
